Patent publication US8324250B2 (Hoffmann-La Roche Inc., priority 2009, dated 2012)

Target: T1, recombinant human NK3 receptor (Homo sapiens, UniProt P29371)
T1 construct: expressed in transfected cells; host or cells: HEK293 cells (transient expression), membranes
T1 sequence (P29371 1-465): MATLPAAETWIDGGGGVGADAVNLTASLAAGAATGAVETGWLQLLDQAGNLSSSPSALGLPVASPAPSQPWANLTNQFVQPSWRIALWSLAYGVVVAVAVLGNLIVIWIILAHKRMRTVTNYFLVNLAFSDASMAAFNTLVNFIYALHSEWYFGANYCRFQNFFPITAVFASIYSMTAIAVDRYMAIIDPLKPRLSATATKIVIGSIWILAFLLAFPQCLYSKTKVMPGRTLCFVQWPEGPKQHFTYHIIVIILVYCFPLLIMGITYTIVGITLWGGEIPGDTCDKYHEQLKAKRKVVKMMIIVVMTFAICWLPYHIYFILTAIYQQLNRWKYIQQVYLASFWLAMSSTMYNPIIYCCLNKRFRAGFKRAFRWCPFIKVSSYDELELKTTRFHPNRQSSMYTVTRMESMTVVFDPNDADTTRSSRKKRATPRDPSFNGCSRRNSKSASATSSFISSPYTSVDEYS
Experiment: [3H]SR142801 competition binding assay
Settings: membranes from HEK293 cells transiently expressing recombinant human NK3 receptor; [3H]SR142801 radioligand; 75 min at RT; Ki by Cheng-Prussoff; read-out: Data Ki (hNK-3 receptor affinity)
In short: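 Membranes from HEK293 cells transiently expressing the receptor, 5 μg protein/well, in 50 mM Tris-HCl pH 7.4 with 4 mM MnCl2, 1 μM phosphoramidon, 0.1% BSA; nonspecific binding defined with 10 μM SB222200. Filtration and scintillation counting; IC50 from Hill fit, Ki by Cheng-Prussoff using saturation-derived KD, duplicates.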

| SMILES | Ki [µM] |
| --- | --- |
| CC(C)C(NC(=O)C1(c2ccc(F)cc2)CCN(C(=O)c2ccc(N3CCCCC3=O)cc2)CC1)c1ccc(F)cc1 (stereo not drawn) [Example 171, 4-(4-Fluoro-phenyl)-1-[4-(2-oxo-piperidin-1-yl)-benzoyl]-piperidine-4-carboxylic acid [1-(4-fluoro-phenyl)-2-methyl-propyl]-amide] | 0.054 |
| C[C@H](NC(=O)C1(c2ccc(F)cc2)CCN(C(=O)c2ccc(N3CCCCC3=O)cc2)CC1)c1cccc(F)c1 [Example 173, 4-(4-Fluoro-phenyl)-1-[4-(2-oxo-piperidin-1-yl)-benzoyl]-piperidine-4-carboxylic acid [(S)-1-(3-fluoro-phenyl)-ethyl]-amide] | 0.043 |
| O=C(N1CCN(c2ccc(F)cc2)CC1)N1CCC(C(=O)NC2(c3ccc(F)cc3)CC2)(c2ccc(F)cc2)CC1 [Example 174] | 0.024 |
| CC(C)C(NC(=O)C1(c2ccc(F)cc2)CCN(C(=O)N2CCN(c3ccc(F)cc3)CC2)CC1)c1ccc(F)cc1 (stereo not drawn) [Example 175, 4-(4-Fluoro-phenyl)-1-[4-(4-fluoro-phenyl)-piperazine-1-carbonyl]-piperidine-4-carboxylic acid [1-(4-fluoro-phenyl)-2-methyl-propyl]-amide] | 0.048 |
| O=C(N1CCN(c2ccc(F)cc2)CC1)N1CCC(C(=O)NC(c2ccc(F)cc2)C(F)(F)F)(c2ccc(F)cc2)CC1 (stereo not drawn) [Example 176, 4-(4-Fluoro-phenyl)-1-[4-(4-fluoro-phenyl)-piperazine-1-carbonyl]-piperidine-4-carboxylic acid [2,2,2-trifluoro-1-(4-fluoro-phenyl)-ethyl]-amide] | 0.077 |
| C[C@H](NC(=O)C1(c2ccc(F)cc2)CCN(C(=O)N2CCN(c3ccc(F)cc3)CC2)CC1)c1cccc(F)c1 [Example 178, 4-(4-Fluoro-phenyl)-1-[4-(4-fluoro-phenyl)-piperazine-1-carbonyl]-piperidine-4-carboxylic acid [(S)-1-(3-fluoro-phenyl)-ethyl]-amide] | 0.019 |
| C[C@H](NC(=O)C1(c2ccc(F)cc2)CCN(C(=O)N2CCN(c3ccc(F)cc3)CC2)CC1)c1ccc(F)cc1 [Example 179, 4-(4-Fluoro-phenyl)-1-[4-(fluoro-phenyl)-piperazine-1-carbonyl]-piperidine-4-carboxylic acid [(S)-1-(4-fluoro-phenyl)-ethyl]-amide] | 0.018 |
| CC(C)N(NC(=O)C1(c2ccc(F)cc2)CCN(C(=O)c2ccc(-c3ccc(F)cc3)cc2)CC1)c1ccc(F)cc1 [Example 185, 1-(4′-Fluoro-biphenyl-4-carbonyl)-4-(4-fluoro-phenyl)-piperidine-4-carboxylic acid N′-(4-fluoro-phenyl)-N′-ispropyl-hydrazide] | 0.0636 |
| Cc1ccc(NNC(=O)C2(c3ccc(F)cc3)CCN(C(=O)c3ccc(-c4ccc(F)cc4)cc3)CC2)cc1 [Example 187, 1-(4′-Fluoro-biphenyl-4-carbonyl)-4-(4-fluoro-phenyl)-piperidine-4-carboxylic acid N′-p-tolyl-hydrazide] | 0.0767 |
| O=C(c1ccc(-c2ccc(F)cc2)cc1)N1CCC(C(=O)NNc2ccc(F)c(F)c2)(c2ccc(F)cc2)CC1 [Example 191, 1-(4′-Fluoro-biphenyl-4-carbonyl)-4-(4-fluoro-phenyl)-piperidine-4-carboxylic acid N′-(3,4-difluoro-phenyl)-hydrazide] | 0.017 |
| O=C(c1ccc(-c2ccc(F)cc2)cc1)N1CCC(C(=O)N[C@H](c2cccc(F)c2)C2CC2)(c2ccc(F)cc2)CC1 [Example 193, 1-(4′-Fluoro-biphenyl-4-carbonyl)-4-(4-fluoro-phenyl)-piperidine-4-carboxylci acid [(S)-cyclopropyl-(3-fluoro-phenyl)-methyl]-amide] | 0.0074 |
| O=C(c1ccc(-c2ccc(F)cc2)cc1)N1CCC(C(=O)N[C@@H](c2cccc(F)c2)C2CC2)(c2ccc(F)cc2)CC1 [Example 194, 1-(4′-Fluoro-biphenyl-4-carbonyl)-4-(4-fluoro-phenyl)-piperidine-4-carboxylic acid [(R)-cyclopropyl-(3-fluoro-phenyl)-methyl]-amide] | 0.035 |
| N#Cc1ccc(N2CCC(C(=O)N3CCC(C(=O)N[C@H](c4cccc(F)c4)C4CC4)(c4ccc(F)cc4)CC3)CC2)nc1 [Example 195, 1-(5′-Cyano-3,4,5,6-tetrahydro-2H-[1,2′]bipyridinyl-4-carbonyl)-4-(4-fluoro-phenyl)-piperidine-4-carboxylic acid [(S)-cyclopropyl-(3-fluoro-phenyl)-methyl]-amide] | 0.015 |
| Cc1noc(-c2ccc(C(=O)N3CCC(C(=O)N[C@H](c4cccc(F)c4)C4CC4)(c4ccc(F)cc4)CC3)cc2)n1 [Example 196, 4-(4-Fluoro-phenyl)-1-[4-(3-methyl-[1,2,4]oxadiazol-5-yl)-benzoyl]-piperidine-4-carboxylic acid [(S)-cyclopropyl-(3-fluoro-phenyl)-methyl]-amide] | 0.0022 |
| Cc1nc(-c2ccc(C(=O)N3CCC(C(=O)N[C@H](c4cccc(F)c4)C4CC4)(c4ccc(F)cc4)CC3)cc2)no1 [Example 197, 4-(4-Fluoro-phenyl)-1-[4-(5-methyl-[1,2,4]oxadiazol-3-yl)-benzoyl]-piperidine-4-carboxylic acid [(S)-cyclopropyl-(3-fluoro-phenyl)-methyl]-amide] | 0.0071 |
| O=C(c1ccc(N2CCCCC2=O)cc1)N1CCC(C(=O)N[C@H](c2cccc(F)c2)C2CC2)(c2ccc(F)cc2)CC1 [Example 198, 4-(4-Fluoro-phenyl)-1-[4-(2-oxo-piperidine-1-yl)-benzoyl]-piperidine-4-carboxylic acid [(S)-cyclopropyl-(3-fluoro-phenyl)-methyl]-amide] | 0.0215 |
| O=C(N1CCN(c2ccc(F)cc2)CC1)N1CCC(C(=O)N[C@H](c2cccc(F)c2)C2CC2)(c2ccc(F)cc2)CC1 [Example 199, 4-(4-Fluoro-phenyl)-1-[4-(4-fluoro-phenyl)-piperazine-1-carbonyl]-piperidine-4-carboxylic acid [(S)-cyclopropyl-(3-fluoro-phenyl)-methyl]-amide] | 0.0051 |
| Cc1noc(-c2ccc(C(=O)N3CCC(C(=O)NC(c4ccc(F)cc4)C(F)(F)F)(c4ccc(F)cc4)CC3)cc2)n1 (stereo not drawn) [Example 200, 4-(4-Fluoro-phenyl)-1-[4-(3-methyl-[1,2,4]oxadiazol-5-yl)-benzoyl]-piperidine-4-carboxylic acid [2,2,2-trifluoro-1-(4-fluoro-phenyl)-ethyl]-amide] | 0.015 |
| C[C@H](NC(=O)C1(c2ccccc2)CCN(C(=O)N2CCN(c3ccc(F)cc3)CC2)CC1)c1ccc(F)cc1 [Example 203, 1-[4-(4-Fluoro-phenyl)-piperazine-1-carbonyl]-4-phenyl-piperidine-4-carboxylic acid [(S)-1-(4-fluoro-phenyl)-ethyl]-amide] | 0.0087 |
| C[C@H](NC(=O)C1(c2ccccc2)CCN(C(=O)N2CCC(c3ccccc3)CC2)CC1)c1ccccc1 [Example 204, 4-Phenyl-1-(4-phenyl-piperidine-1-carbonyl)-piperidine-4-carboxylic acid ((S)-1-phenyl-ethyl)-amide] | 0.0792 |
| C[C@H](NC(=O)C1(c2ccccc2)CCN(C(=O)N2CCN(c3ccc(Cl)cn3)CC2)CC1)c1ccccc1 [Example 206, 1-[4-(5-Chloro-pyridin-2-yl)-piperazine-1-carbonyl]-4-phenyl-piperidine-4-carboxylic acid ((S)-1-phenyl-ethyl)-amide] | 0.0798 |
